The record followed here is patent US20260327214A1, “1,3,4-OXADIAZOLE DERIVATIVE COMPOUNDS AS HISTONE DEACETYLASE 6 INHIBITOR, AND USES THEREOF” (CHONG KUN DANG PHARMACEUTICAL CORP., priority 2022, published 2026).

One experiment has as its target T1, human recombinant HDAC1 (Homo sapiens, UniProt Q13547).
T1 construct: purchased Enzo Life Science BML-SE456
Nature of the experiment: HDAC1 enzyme activity inhibition test (HDAC Fluorometric Drug Discovery Kit). The class given is biochemical. As to conditions: 30° C., 60 minutes, 10 μM substrate. As to the method: (§1) The following experiment was conducted to confirm the HDAC6 selectivity of the compound represented by Chemical Formula I of the present invention through the HDAC1 and HDAC6 enzyme activity inhibition test.
(§2) HDAC enzyme activity was measured using HDAC Fluorometric Drug Discovery Kit (BML-AK511, 516) manufactured by Enzo Life Science. For the HDAC1 enzyme activity test, human recombinant HDAC1 (BML-SE456) was used as an enzyme source and Fluor de Lys-®-″SIRT1 (BNL-KI177) was used as a substrate. The 5-fold diluted compound was dispensed in a 96-well plate, 0.3 μg of enzyme and 10 μM substrate were added to each well and reacted at 30° C. for 60 minutes, and Fluor de Lys® Developer II(BML-KI176) was added and reacted for 30 minutes to complete the reaction. Then, the fluorescence value (Ex 360, Em 460) was measured using a multiplate reader (Flexstation 3, Molecular Device). The HDAC6 enzyme was tested using the same protocol as the HDAC1 enzyme activity test method employing human recombinant HDAC6 (382180) from Calbiochem. For the final result, each […] value was calculated using the GraphPad Prism 4.0 program.

A further experiment deals with T2, human recombinant HDAC6 (Homo sapiens, UniProt Q9UBN7).
T2 construct: purchased Calbiochem 382180
T2 sequence (Q9UBN7 1-1215): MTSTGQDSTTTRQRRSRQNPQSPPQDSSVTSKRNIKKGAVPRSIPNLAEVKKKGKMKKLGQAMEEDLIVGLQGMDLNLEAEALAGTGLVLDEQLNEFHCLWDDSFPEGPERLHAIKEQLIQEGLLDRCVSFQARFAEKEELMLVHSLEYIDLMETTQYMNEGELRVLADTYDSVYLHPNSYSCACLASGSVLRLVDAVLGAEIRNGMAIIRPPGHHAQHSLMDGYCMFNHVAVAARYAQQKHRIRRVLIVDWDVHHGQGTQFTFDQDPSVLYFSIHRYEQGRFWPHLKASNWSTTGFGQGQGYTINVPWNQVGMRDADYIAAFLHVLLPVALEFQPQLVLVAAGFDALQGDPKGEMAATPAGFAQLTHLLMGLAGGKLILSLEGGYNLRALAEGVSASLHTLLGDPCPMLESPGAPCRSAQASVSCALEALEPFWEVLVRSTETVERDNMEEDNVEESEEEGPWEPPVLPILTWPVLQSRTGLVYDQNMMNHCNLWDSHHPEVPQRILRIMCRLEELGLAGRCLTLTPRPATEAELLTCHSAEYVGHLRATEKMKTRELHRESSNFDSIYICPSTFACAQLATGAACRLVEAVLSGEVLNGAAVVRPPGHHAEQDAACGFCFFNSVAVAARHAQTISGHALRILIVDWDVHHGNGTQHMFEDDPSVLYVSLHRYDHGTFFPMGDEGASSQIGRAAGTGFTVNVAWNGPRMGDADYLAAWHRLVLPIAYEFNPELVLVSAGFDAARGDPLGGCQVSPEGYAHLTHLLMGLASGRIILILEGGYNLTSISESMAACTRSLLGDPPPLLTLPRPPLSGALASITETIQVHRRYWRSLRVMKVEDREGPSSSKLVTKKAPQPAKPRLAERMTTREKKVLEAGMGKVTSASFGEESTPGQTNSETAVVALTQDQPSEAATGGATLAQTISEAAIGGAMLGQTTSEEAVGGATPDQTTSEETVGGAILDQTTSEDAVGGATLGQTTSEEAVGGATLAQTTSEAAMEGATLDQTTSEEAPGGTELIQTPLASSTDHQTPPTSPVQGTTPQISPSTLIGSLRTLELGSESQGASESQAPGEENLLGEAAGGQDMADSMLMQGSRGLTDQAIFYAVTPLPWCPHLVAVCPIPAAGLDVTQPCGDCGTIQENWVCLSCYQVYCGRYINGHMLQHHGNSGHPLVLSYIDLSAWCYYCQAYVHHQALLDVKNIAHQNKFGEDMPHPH
Nature of the experiment: HDAC6 enzyme activity inhibition test (HDAC Fluorometric Drug Discovery Kit). The class given is biochemical. The note with it: for HDAC6 selectivity (fold): HDAC6 over HDAC1; for IC50: human recombinant HDAC6, same protocol as HDAC1. As to the method: as §1, §2

T1 sequence (Q13547 whole entry): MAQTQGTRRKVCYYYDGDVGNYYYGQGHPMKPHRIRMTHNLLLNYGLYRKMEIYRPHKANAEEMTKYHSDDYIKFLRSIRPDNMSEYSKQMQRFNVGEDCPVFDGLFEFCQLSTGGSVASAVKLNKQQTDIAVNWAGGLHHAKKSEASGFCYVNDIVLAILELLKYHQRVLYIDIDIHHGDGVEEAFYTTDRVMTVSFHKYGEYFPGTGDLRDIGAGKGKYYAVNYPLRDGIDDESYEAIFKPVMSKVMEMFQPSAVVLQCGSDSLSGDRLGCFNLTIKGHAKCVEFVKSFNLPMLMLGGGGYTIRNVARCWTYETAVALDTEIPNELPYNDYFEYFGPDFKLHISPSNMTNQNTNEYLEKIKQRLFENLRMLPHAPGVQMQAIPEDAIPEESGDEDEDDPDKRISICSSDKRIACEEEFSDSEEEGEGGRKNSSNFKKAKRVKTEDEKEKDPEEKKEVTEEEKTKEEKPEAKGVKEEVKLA

A word on the IC50: it is the concentration that inhibits the measured activity by half. For the molecule `CN1CCC(c2cccc(-c3nn(Cc4ccc(-c5nnc(C(F)F)o5)cn4)c(=O)o3)c2)CC1` [Compound 8, 3-[[5-[5-(difluoromethyl)-1,3,4-oxadiazol-2-yl]-2-pyridyl]methyl]-5-[3-(1-methyl-4-piperidyl)phenyl]-1,3,4-oxadiazol-2-one], the 50% inhibitory concentration (IC50) at human recombinant HDAC1 is above 50000 nM. Further, at human recombinant HDAC6, the “HDAC6 selectivity (fold)” value is 546 fold and the half-inhibitory concentration (IC50) is 91.6 nM.

Turning to `CC(C)N1CCN(c2nccc(-c3nn(Cc4ccc(-c5nnc(C(F)F)o5)cn4)c(=S)o3)n2)CC1` [Compound 127, 3-[[5-[5-(difluoromethyl)-1,3,4-oxadiazol-2-yl]-2-pyridyl]methyl]-5-[2-(4-isopropylpiperazin-1-yl)pyrimidin-4-yl]-1,3,4-oxadiazol-2-thione], the IC50 on human recombinant HDAC1 is above 50000 nM. Besides, on human recombinant HDAC6, the “HDAC6 selectivity (fold)” value came out at 879 fold and the IC50 was found to be 56.9 nM.

Take `CC(C)N1CCC(c2cccc(-c3nn(Cc4ccc(-c5nnc(C(F)F)o5)cn4)c(=S)o3)c2F)CC1` [Compound 80, 3-[[5-[5-(difluoromethyl)-1,3,4-oxadiazol-2-yl]-2-pyridyl]methyl]-5-[2-fluoro-3-(1-isopropyl-4-piperidyl)phenyl]-1,3,4-oxadiazol-2-thione]: the IC50 at human recombinant HDAC1 was above 50000 nM. Moreover, at human recombinant HDAC6, the “HDAC6 selectivity (fold)” value was found to be 649 fold and the IC50 was 77.1 nM.

`O=c1oc(-c2cccc(C3CCN(C4COC4)CC3)c2)nn1Cc1ccc(-c2nnc(C(F)F)o2)cn1` [Compound 9, 3-[[5-[5-(difluoromethyl)-1,3,4-oxadiazol-2-yl]-2-pyridyl]methyl]-5-[3-[1-(oxetane-3-yl)-4-piperidyl]phenyl]-1,3,4-oxadiazol-2-one]: the IC50 is above 50000 nM on human recombinant HDAC1 and 85.5 nM at human recombinant HDAC6. For the same molecule, the “HDAC6 selectivity (fold)” value on human recombinant HDAC6 worked out at 585 fold.

In the case of `CC(C)N1CCC(c2ccc(-c3nn(Cc4ccc(-c5nnc(C(F)F)o5)cn4)c(=O)s3)cc2)CC1` [Compound 55, 3-[[5-[5-(difluoromethyl)-1,3,4-oxadiazol-2-yl]-2-pyridyl]methyl]-5-[4-(1-isopropyl-4-piperidyl)phenyl]-1,3,4-thiadiazol-2-one], the values for the IC50 at human recombinant HDAC1 and at human recombinant HDAC6 were above 50000 nM and 78.9 nM, respectively. Besides, the “HDAC6 selectivity (fold)” value on human recombinant HDAC6 amounted to 634 fold.

On to `FC(F)c1nnc(-c2ccc(Cn3nc(-c4cccs4)oc3=S)nc2)o1` [Compound 50, 3-[ [5-[5-(difluoromethyl) -1,3,4-oxadiazol-2-yl] -2-pyridyl]methyl] -5-(2-thienyl)-1,3,4-oxadiazol-2-thione], for which the IC50 at human recombinant HDAC1 was above 50000 nM. Further, on human recombinant HDAC6, the “HDAC6 selectivity (fold)” value was found to be 588 fold and the IC50 turned out to be 85.1 nM.

`CC(C)N1CCN(c2cccc(-c3nn(Cc4ccc(-c5nnc(C(F)F)o5)cn4)c(=O)o3)n2)CC1` [Compound 6, 3-[[5-[5-(difluoromethyl)-1,3,4-oxadiazol-2-yl]-2-pyridyl]methyl]-5-[6-(4-isopropylpiperazin-1-yl)-2-pyridyl]-1,3,4-oxadiazol-2-one]: the IC50 on human recombinant HDAC1 is above 50000 nM. In addition, at human recombinant HDAC6, the “HDAC6 selectivity (fold)” value was 1078 fold and the IC50 came to 46.4 nM.

In the case of `O=c1oc(-c2cccs2)nn1Cc1ccc(-c2nnc(C(F)F)o2)cn1` [Compound 5, 3-[[5-[5-(difluoromethyl)-1,3,4-oxadiazol-2-yl]-2-pyridyl]methyl]-5-(2-thienyl)-1,3,4-oxadiazol-2-one], the IC50 at human recombinant HDAC1 is above 50000 nM. Also, on human recombinant HDAC6, the “HDAC6 selectivity (fold)” value came to 589 fold and the IC50 is 84.9 nM.

As to `Fc1cccc(-c2nn(Cc3ncc(-c4nnc(C(F)F)o4)cc3F)c(=S)o2)c1` [Compound 48, 3-[[5-[5-(difluoromethyl)-1,3,4-oxadiazol-2-yl]-3-fluoro-2-pyridyl]methyl]-5-(3-fluorophenyl)-1,3,4-oxadiazol-2-thione], the IC50 was above 50000 nM at human recombinant HDAC1 and 114 nM on human recombinant HDAC6. In addition, the “HDAC6 selectivity (fold)” value on human recombinant HDAC6 is listed as 437 fold.

As for `O=c1sc(-c2cccc(CN3CCN(C4CCC4)CC3)c2)nn1Cc1ccc(-c2nnc(C(F)F)o2)cn1` [Compound 64, 5-[3-[(4-cyclobutylpiperazin-1-yl)methyl]phenyl]-3-[[5-[5-(difluoromethyl)-1,3,4-oxadiazol-2-yl]-2-pyridyl]methyl]-1,3,4-thiadiazol-2-one], the IC50 on human recombinant HDAC1 was above 50000 nM. On human recombinant HDAC6, the “HDAC6 selectivity (fold)” value is 418 fold and the IC50 came out at 120 nM.

Turning to `FC(F)c1nnc(-c2ccc(Cn3nc(-c4ccc(CN5CCOCC5)cc4)oc3=S)nc2)o1` [Compound 95, 3-[[5-[5-(difluoromethyl)-1,3,4-oxadiazol-2-yl]-2-pyridyl]methyl]-5-[4-(morpholinomethyl)phenyl]-1,3,4-oxadiazol-2-thione], the IC50 at human recombinant HDAC1 is above 50000 nM; at human recombinant HDAC6 it was 87.1 nM. Besides, at human recombinant HDAC6, the “HDAC6 selectivity (fold)” value is 574 fold.

With `O=c1oc(-c2ccccc2F)nn1Cc1ccc(-c2nnc(C(F)F)o2)cn1` [Compound 15, 3-[[5-[5-(difluoromethyl)-1,3,4-oxadiazol-2-yl]-2-pyridyl]methyl]-5-(2-fluorophenyl)-1,3,4-oxadiazol-2-one], the IC50 at human recombinant HDAC1 is above 50000 nM. In addition, at human recombinant HDAC6, the “HDAC6 selectivity (fold)” value is on record as 524 fold and the IC50 turned out to be 95.5 nM.

As for `CC(C)N1CCN(c2ccc(-c3nn(Cc4ccc(-c5nnc(C(F)F)o5)cn4)c(=O)o3)cc2)CC1` [Compound 22, 3-[[5-[5-(difluoromethyl)-1,3,4-oxadiazol-2-yl]-2-pyridyl]methyl]-5-[4-(4-isopropylpiperazin-1-yl)phenyl]-1,3,4-oxadiazol-2-one], the IC50 at human recombinant HDAC1 was above 50000 nM; at human recombinant HDAC6, 104 nM. The “HDAC6 selectivity (fold)” value at human recombinant HDAC6 is recorded as 479 fold.

As for `CCN(CC)Cc1ccc(-c2nn(Cc3ncc(-c4nnc(C(F)F)o4)cc3F)c(=S)o2)s1` [Compound 129, 5-[5-(diethylaminomethyl)-2-thienyl]-3-[[5-[5-(difluoromethyl)-1,3,4-oxadiazol-2-yl]-3-fluoro-2-pyridyl]methyl]-1,3,4-oxadiazol-2-thione], the IC50 at human recombinant HDAC1 is above 50000 nM. At human recombinant HDAC6, the “HDAC6 selectivity (fold)” value worked out at 457 fold and the IC50 was 109 nM.

Take `CN1CCN(c2ccc(-c3nn(Cc4ccc(-c5nnc(C(F)F)o5)cn4)c(=O)o3)c(F)c2)CC1` [Compound 24, 3-[[5-[5-(difluoromethyl)-1,3,4-oxadiazol-2-yl]-2-pyridyl]methyl]-5-[2-fluoro-4-(4-methylpiperazin-1-yl)phenyl]-1,3,4-oxadiazol-2-one]: the IC50 on human recombinant HDAC1 is above 50000 nM; at human recombinant HDAC6 it was 103 nM. The “HDAC6 selectivity (fold)” value at human recombinant HDAC6 worked out at 487 fold.

`Fc1cc(-c2nnc(C(F)F)o2)cnc1Cn1nc(-c2ccc(CN3CCCCC3)cc2)oc1=S` [Compound 112, 3-[[5-[5-(difluoromethyl)-1,3,4-oxadiazol-2-yl]-3-fluoro-2-pyridyl]methyl]-5-[4-(1-piperidylmethyl)phenyl]-1,3,4-oxadiazol-2-thione]: the IC50 on human recombinant HDAC1 was above 50000 nM. On human recombinant HDAC6, the “HDAC6 selectivity (fold)” value is listed as 980 fold and the IC50 was 51 nM.

As to `CCN(CC)Cc1ccc(-c2nn(Cc3ccc(-c4nnc(C(F)F)o4)cn3)c(=S)o2)s1` [Compound 122, 5-[5-(diethylaminomethyl)-2-thienyl]-3-[[5-[5-(difluoromethyl)-1,3,4-oxadiazol-2-yl]-2-pyridyl]methyl]-1,3,4-oxadiazol-2-thione], at human recombinant HDAC1, the concentration for half-maximal inhibition (IC50) is above 50000 nM. Moreover, on human recombinant HDAC6, the “HDAC6 selectivity (fold)” value came out at 453 fold and the IC50 came out at 110 nM.
